Experimental data published in patent publication US20180296530A1, “METHOD FOR TREATING ATOPIC DERMATITIS” (priority 2015, published 2018).

What was measured:
IL-4 = test: Example 5: dorsal skin IL-4 mRNA by RT-PCR; format: in vivo, Balb/c mice
Procedure: The protocol for establishing an AD mouse model in this Example was modified from those described previously. Briefly, referring to FIG. 4, DNCB-induced AD mouse model was prepared by the repeated applications of 20 μL of 1% DNCB in acetone/olive oil (4:1) to the outer and inner surfaces of mouse ears and 100 μL of the same solution to the shaved back skin once on days 1, 2, and 3. Mice of Control group were treated with the identical volumes of vehicle.
The DNCB-sensitized mice were randomly assigned to one of three groups: DNCB (Positive control), DNCB+3% topical melatonin (Treatment: low-dose), DNCB+5% topical melatonin (Treatment: high-dose). Each group (including Control group) consisted of 5 mice. From days 9 to 19, sensitized mice were challenged by applying 0.5% DNCB to the skin surfaces. For the two groups treated with topical melatonin groups, 0.3 mg of topical melatonin ointment (3% or 5% melatonin in Vaseline) was given together with DNCB during the challenge period. […]
Blood and dorsal skin of each mouse were collected on the last day of the experiment (Day 20) and stored at −80° C. until use. Serum IgE levels were measured using the ImmunoCAP fluorescence enzyme immunoassay (Phadia AB, Sweden) according to the manufacturer's instructions. The dorsal skin mRNA expression of the cytokines IL-4, IL-13, and IL-17 were measured by RT-PCR.

[1] = test system: Patients aged 1 to 18 years with physician-diagnosed AD; test: Randomized double-blind placebo-controlled crossover clinical trial: AD severity by SCORAD index; format: in vivo, human; parameters: key to mean SCORAD index, first treatment period, before / mean SCORAD index, first treatment period, after: SCORAD index, range 1-103, higher = worse symptoms; key to Objective SCORAD index, Difference: objective SCORAD, range 0-83, higher = worse symptoms
Procedure: A randomized clinical study with a double-blind, placebo-controlled crossover design was performed. The institutional review committee of National Taiwan University Hospital approved the study protocol. This study conformed to the principles of the Declaration of Helsinki. Patients or their guardians provided written informed consent. Patients aged 1 to 18 years with physician-diagnosed AD involving at least 5% of the total body surface area were recruited from the pediatric and dermatology outpatient departments of the National Taiwan University Hospital from Aug. 1, 2012, through Jan. 31, 2013. Follow-up was completed on Apr. 13, 2013. Those patients with sleep problems occurring more than 3 days per week during the previous 3 months were eligible. The study participants were randomly assigned to 2 groups in a 1:1 ratio, with a block size of 4. One group received melatonin first and then placebo, and the other group received placebo first and then melatonin. The melatonin and placebo tablets were identical in appearance. The participants and their caregivers, treating physicians, those assessing outcomes, and those analyzing the data were all masked to group assignment. […] They were then randomized to receive oral melatonin, 3 mg/d (General Nutrition Corporation), or placebo (Standard Chem & Pharm Co, Ltd) at bedtime for 4 weeks. After a 2-week washout period, participants crossed to the alternate treatment. In this clinical trial, the primary study outcome was the Scoring Atopic Dermatitis (SCORAD) index for the evaluation of AD severity. Secondary outcomes included the objective sleep variables measured by actigraphy, the patient's subjective description of the change in sleep and dermatitis severity, the sleep variables measured by polysomnography, nocturnal urinary levels of 6-sulfatoxymelatonin, and serumtotal and allergen-specific IgE levels. Severity of AD was assessed using the SCORAD index (range, 1-103, with greater scores indicating worse symptoms) by the same physician (Y.-S.C.) blinded to the treatment randomization. The SCORAD index includes subjective visual analog scale scores from 0 to 10 (with greater numbers indicating worse symptoms) for degree of pruritus and sleep loss, which are referred to as the pruritus score and the subjective sleep score, respectively, in this study. The objective SCORAD index, which excludes the SCORAD score for subjective symptoms (range, 0-83, with greater scores indicating worse symptoms), was also used for analysis.

[2] = after vs before oral melatonin 3 mg/d, 4 weeks, mean
[3] = melatonin vs placebo, adjusted for age and sex

SMILES: COc1ccc2[nH]cc(CCNC(C)=O)c2c1 [Melatonin, melatonin]
- skin mRNA expression of IL-4, dose-response (IL-4; 5% melatonin treatment compared with 3% melatonin treatment): decreased more
- skin mRNA expression of IL-4 (IL-4; after topical melatonin treatment (3% or 5%), FIG. 11A): decreased
- SCORAD index vs placebo, Wilcoxon signed rank test ([1]; FIGS. 2A and 2C, sensitivity analysis): apparently decreased the SCORAD index
- patients who subjectively believed that their dermatitis had improved ([1]; after melatonin treatment, 17 of 36 (placebo 12 of 38 [32%])): 47%
- Subjective sleep score, After ([1]; after oral melatonin 3 mg/d at bedtime for 4 weeks, mean): 3.8
- Pruritus score, After ([1]; after oral melatonin 3 mg/d at bedtime for 4 weeks, mean, score 0 to 10): 5.1
- Objective SCORAD index, After ([1]; after oral melatonin 3 mg/d at bedtime for 4 weeks, mean, score 0 to 83): 31.3
- SCORAD index, After ([1]; after oral melatonin 3 mg/d at bedtime for 4 weeks, mean, score 0 to 103): 40.2
- Objective SCORAD index, Difference [1, 2]: −8.2
- Pruritus score, Difference [1, 2]: −0.6
- SCORAD index, Difference [1, 2]: −9.9
- Subjective sleep score, Difference [1, 2]: −1.1
- mean reduction of the SCORAD index ([1]; in 4 weeks, oral melatonin 3 mg/d): 9.9
- decrease of the SCORAD index compared with placebo ([1]; linear mixed-effects model, adjusted for age and sex): 9.1
- decrease of the objective SCORAD index compared with placebo ([1]; linear mixed-effects model, no significant carryover effect (P=0.81), significant period effect (P=0.02)): 8.7
- mean SCORAD index, first treatment period, after ([1]; melatonin group, first treatment period, after oral 3 mg/d for 4 weeks): 42.3
- mean SCORAD index, first treatment period, before ([1]; melatonin group, first treatment period, before treatment): 49.5
- mean SCORAD index, second treatment period, after ([1]; melatonin group, second treatment period, after oral 3 mg/d for 4 weeks): 38.3
- mean SCORAD index, second treatment period, before ([1]; melatonin group, second treatment period, before treatment): 48.7
- Subjective sleep score, Before ([1]; melatonin phase, before treatment, mean): 4.8
- Pruritus score, Before ([1]; melatonin phase, before treatment, mean, score 0 to 10): 5.6
- Objective SCORAD index, Before ([1]; melatonin phase, before treatment, mean, score 0 to 83): 38.6
- SCORAD index, Before ([1]; melatonin phase, before treatment, mean, score 0 to 103): 49.1
- Objective SCORAD index, Difference of Treatment Effect From the Linear Mixed-Effects Model, Mean [1, 3]: −8.7
- Pruritus score, Difference of Treatment Effect From the Linear Mixed-Effects Model, Mean [1, 3]: 0.0
- SCORAD index, Difference of Treatment Effect From the Linear Mixed-Effects Model, Mean [1, 3]: −9.1
- Subjective sleep score, Difference of Treatment Effect From the Linear Mixed-Effects Model, Mean [1, 3]: −0.4
